The values below come from US8415482B2, “Proline derivatives” (National Health Research Institutes, priority 2009, dated 2013).

A value given as a limit tells only on which side of the number the result lay.

The assay has as its system HCV replication. Description: Inhibiting HCV replication, Ava5-EG(Δ4AB)SEAP reporter-based cell line, SEAP activity. The following applies: Hepatitis C virus, 72 h, Ava5-EG(Δ4AB)SEAP cells; 48 hours + additional 24 hours treatment; SEAP activity in culture medium; read-out: EC50 values (i.e., the concentration of a test compound at which 50% HCV replication is inhibited). As to the method:
The inhibitory activity of compounds of this invention against HCV replication was assessed using Ava5-EG(Δ4AB)SEAP, a reporter-based cell line, according to the methods described in Lee et al., Anal. Biochem., 316:162-70 (2003) and Lee et al., J. Virol Methods, 116:27-33 (2004). Briefly, Ava5-EG(Δ4AB)SEAP cells were cultured in a medium containing 500 μg/mL G418 (geneticin) and 10 μg/mL blasticidin in a 5% CO2 incubator. G418 and blasticidin were purchased from Invitrogen (Carlsbad, Calif.). The cells were seeded in a 96-well plate (5×10^3 cells/100 μL-well) and incubated at 37° C. for 24 hours. They were then treated with a solution of a test compound in DMSO at various concentrations. After 48 hours, the culture medium in each well was replaced with a fresh medium containing the test compound at the same concentrations to remove secreted alkaline phosphatase (SEAP) accumulated in the culture medium, if any. The cells were cultured for additional 24 hours. The culture medium was then collected and tested for SEAP activity using a Phospha-Light assay kit (Tropix, Foster, Calif., USA).
Turning to `CC(C)(C)OC(=O)N[C@@H](C(=O)N1CCC[C@H]1c1ncc(-c2ccc(-c3ccc(-c4cnc([C@@H]5CCCN5C(=O)[C@H](NC(=O)OC(C)(C)C)c5ccccc5)s4)cc3)cc2)s1)c1ccccc1` [Compound 6a, di-tert-butyl (1R,1′R)-2,2′-((2S,2′S)-2,2′-(5,5′-(biphenyl-4,4′-diyl)bis(thiazole-5,2-diyl))bis(pyrro-lidine-2,1-diyl))bis(2-oxo-1-phenylethane-2,1-diyl)dicarbamate], the EC50 is ≤ 500 nM. For the molecule `O=C(N[C@@H](C(=O)N1CCC[C@H]1c1ncc(-c2ccc(-c3ccc(-c4cnc([C@@H]5CCCN5C(=O)[C@H](NC(=O)C5CC5)c5ccccc5)s4)cc3)cc2)s1)c1ccccc1)C1CC1` [Compound 7a-A, N,N′-(1R,1′R)-2,2′-((2S,2′S)-2,2′-(5,5′-(biphenyl-4,4′-diyl)bis(thiazole-5,2-diyl))bis(pyrrolidine-2,1-diyl))bis(2-oxo-1-phenylethane-2,1-diyl)dicyclopropanecarboxamide], the EC50 was ≤ 500 nM. The result for `O=C(N[C@@H](C(=O)N1CCC[C@H]1c1ncc(-c2ccc(-c3ccc(-c4cnc([C@@H]5CCCN5C(=O)[C@H](NC(=O)N5CCOCC5)c5ccccc5)s4)cc3)cc2)s1)c1ccccc1)N1CCOCC1` [Compound 7a-B] reads ≤ 500 nM. In the case of `O=C(N[C@@H](C(=O)N1C[C@H](F)C[C@H]1c1ncc(-c2ccc(-c3ccc(-c4cnc([C@@H]5C[C@@H](F)CN5C(=O)[C@H](NC(=O)C5CC5)c5ccccc5)s4)cc3)cc2)s1)c1ccccc1)C1CC1` [Compound 7b-A] it was ≤ 500 nM; in that of `O=C(N[C@@H](C(=O)N1C[C@H](F)C[C@H]1c1ncc(-c2ccc(-c3ccc(-c4cnc([C@@H]5C[C@@H](F)CN5C(=O)[C@H](NC(=O)N5CCOCC5)c5ccccc5)s4)cc3)cc2)s1)c1ccccc1)N1CCOCC1` [Compound 7b-B], ≤ 500 nM. `O=C(N[C@@H](C(=O)N1C[C@@H](F)C[C@H]1c1ncc(-c2ccc(-c3ccc(-c4cnc([C@@H]5C[C@H](F)CN5C(=O)[C@H](NC(=O)C5CC5)c5ccccc5)s4)cc3)cc2)s1)c1ccccc1)C1CC1` [Compound 7c-A]: the EC50 is ≤ 500 nM. The result for `O=C(N[C@@H](C(=O)N1C[C@@H](F)C[C@H]1c1ncc(-c2ccc(-c3ccc(-c4cnc([C@@H]5C[C@H](F)CN5C(=O)[C@H](NC(=O)N5CCOCC5)c5ccccc5)s4)cc3)cc2)s1)c1ccccc1)N1CCOCC1` [Compound 7c-B] reads ≤ 500 nM; that for `CC(C)(C)OC(=O)N[C@@H](C(=O)N1CCC[C@H]1c1nc(-c2ccc(-c3ccc(-c4noc([C@@H]5CCCN5C(=O)[C@H](NC(=O)OC(C)(C)C)c5ccccc5)n4)cc3)cc2)c[nH]1)c1ccccc1` [Compound 25a], ≤ 500 nM; that for `O=C(N[C@@H](C(=O)N1CCC[C@H]1c1nc(-c2ccc(-c3ccc(-c4noc([C@@H]5CCCN5C(=O)[C@H](NC(=O)C5CC5)c5ccccc5)n4)cc3)cc2)c[nH]1)c1ccccc1)C1CC1` [Compound 26a], ≤ 500 nM. The result for `CC(C)(C)OC(=O)N[C@@H](C(=O)N1CCC[C@H]1c1nc(-c2ccc(-c3ccc(-c4csc([C@@H]5CCCN5C(=O)[C@H](NC(=O)OC(C)(C)C)c5ccccc5)n4)cc3)cc2)no1)c1ccccc1` [Compound 29a] reads ≤ 500 nM. In the case of `O=C(N[C@@H](C(=O)N1CCC[C@H]1c1nc(-c2ccc(-c3ccc(-c4csc([C@@H]5CCCN5C(=O)[C@H](NC(=O)C5CC5)c5ccccc5)n4)cc3)cc2)no1)c1ccccc1)C1CC1` [Compound 30a] it was ≤ 500 nM; in that of `CC(C)(C)OC(=O)N[C@@H](C(=O)N1CCC[C@H]1c1nc(-c2ccc(-c3ccc(-c4cnc([C@@H]5CCCN5C(=O)[C@H](NC(=O)OC(C)(C)C)c5ccccc5)s4)cc3)cc2)no1)c1ccccc1` [Compound 33a], ≤ 500 nM. Turning to `O=C(N[C@@H](C(=O)N1CCC[C@H]1c1nc(-c2ccc(-c3ccc(-c4cnc([C@@H]5CCCN5C(=O)[C@H](NC(=O)C5CC5)c5ccccc5)s4)cc3)cc2)no1)c1ccccc1)C1CC1` [Compound 34a], the EC50 was ≤ 500 nM. In the case of `CC(C)(C)OC(=O)N[C@@H](C(=O)N1CCC[C@H]1c1ncc(-c2ccc(-c3ccc(-c4csc([C@@H]5CCCN5C(=O)[C@H](NC(=O)OC(C)(C)C)c5ccccc5)n4)cc3)cc2)[nH]1)c1ccccc1` [Compound 37a] it was ≤ 500 nM; in that of `O=C(N[C@@H](C(=O)N1CCC[C@H]1c1ncc(-c2ccc(-c3ccc(-c4csc([C@@H]5CCCN5C(=O)[C@H](NC(=O)C5CC5)c5ccccc5)n4)cc3)cc2)[nH]1)c1ccccc1)C1CC1` [Compound 38a], ≤ 500 nM; in that of `CC(C)(C)OC(=O)N[C@@H](C(=O)N1CCC[C@H]1c1ncc(-c2ccc(-c3ccc(-c4cnc([C@@H]5CCCN5C(=O)[C@H](NC(=O)OC(C)(C)C)c5ccccc5)s4)cc3)cc2)[nH]1)c1ccccc1` [Compound 41a], ≤ 500 nM. On to `O=C(N[C@@H](C(=O)N1CCC[C@H]1c1ncc(-c2ccc(-c3ccc(-c4cnc([C@@H]5CCCN5C(=O)[C@H](NC(=O)C5CC5)c5ccccc5)s4)cc3)cc2)[nH]1)c1ccccc1)C1CC1` [Compound 42a, N—((R)-2-((S)-2-(5-(4′-(2-((S)-1-((R)-2-(cyclopropanecarboxamido)-2-phenylacetyl)pyrrolidin-2-yl)-1H-imidazol-4-yl)biphenyl-4-yl)thiazol-2-yl)pyrrolidin-1-yl)-2-oxo-1-phenyl-ethyl)cyclopropanecarboxamide], for which the EC50 is ≤ 500 nM. For `CC(C)(C)OC(=O)N[C@@H](C(=O)N1CCC[C@H]1c1nc(-c2ccc(-c3ccc(-c4cnc([C@@H]5CCCN5C(=O)[C@H](NC(=O)OC(C)(C)C)c5ccccc5)s4)cc3)cc2)cs1)c1ccccc1` [Compound 45a], the EC50 is ≤ 500 nM. For the molecule `O=C(N[C@@H](C(=O)N1CCC[C@H]1c1nc(-c2ccc(-c3ccc(-c4cnc([C@@H]5CCCN5C(=O)[C@H](NC(=O)C5CC5)c5ccccc5)s4)cc3)cc2)cs1)c1ccccc1)C1CC1` [Compound 46a], the EC50 was ≤ 500 nM. For `CC(=O)N[C@H](C(=O)N1CCC[C@H]1c1ncc(-c2ccc(-c3ccc(-c4cnc([C@@H]5CCCN5C(=O)[C@H](NC(C)=O)c5ccccc5)s4)cc3)cc2)s1)c1ccccc1` [Compound 51a], the EC50 was ≤ 500 nM.

As for `CCCCCC(=O)N[C@@H](C(=O)N1CCC[C@H]1c1ncc(-c2ccc(-c3ccc(-c4cnc([C@@H]5CCCN5C(=O)[C@H](NC(=O)CCCCC)c5ccccc5)s4)cc3)cc2)s1)c1ccccc1` [Compound 58a], the EC50 is ≤ 500 nM.

Consider `CC(C)C(=O)N[C@H](C(=O)N1CCC[C@H]1c1ncc(-c2ccc(-c3ccc(-c4cnc([C@@H]5CCCN5C(=O)[C@H](NC(=O)C(C)C)c5ccccc5)s4)cc3)cc2)s1)c1ccccc1` [Compound 61a], for which the EC50 is ≤ 500 nM. The result for `O=C(N[C@H](C(=O)N1CCC[C@H]1c1ncc(-c2ccc(-c3ccc(-c4cnc([C@@H]5CCCN5C(=O)[C@H](NC(=O)C5CCC5)c5ccccc5)s4)cc3)cc2)s1)c1ccccc1)C1CCC1` [Compound 67a] reads ≤ 500 nM; that for `O=C(N[C@@H](C(=O)N1CCC[C@H]1c1ncc(-c2ccc(-c3ccc(-c4cnc([C@@H]5CCCN5C(=O)[C@H](NC(=O)C5CCCCC5)c5ccccc5)s4)cc3)cc2)s1)c1ccccc1)C1CCCCC1` [Compound 70a], ≤ 500 nM; that for `O=C(Cc1ccccc1)N[C@@H](C(=O)N1CCC[C@H]1c1ncc(-c2ccc(-c3ccc(-c4cnc([C@@H]5CCCN5C(=O)[C@H](NC(=O)Cc5ccccc5)c5ccccc5)s4)cc3)cc2)s1)c1ccccc1` [Compound 74a], ≤ 500 nM. The result for `O=C(N[C@@H](C(=O)N1CCC[C@H]1c1ncc(-c2ccc(-c3ccc(-c4cnc([C@@H]5CCCN5C(=O)[C@H](NC(=O)c5ccco5)c5ccccc5)s4)cc3)cc2)s1)c1ccccc1)c1ccco1` [Compound 76a] reads ≤ 500 nM; that for `O=C(N[C@@H](C(=O)N1CCC[C@H]1c1ncc(-c2ccc(-c3ccc(-c4cnc([C@@H]5CCCN5C(=O)[C@H](NC(=O)c5ccncc5)c5ccccc5)s4)cc3)cc2)s1)c1ccccc1)c1ccncc1` [Compound 84a], ≤ 500 nM.
